{
  "source": "patent US4128666A",
  "about": "“4 AND 5-Halo substituted 2-indanamine compounds” (SmithKline Corporation, priority 1977, dated 1978)",
  "key": {"[1]": {"biological_target": "phenylethanolamine N-methyltransferase", "assay": "inhibition of phenylethanolamine N-methyltransferase in vitro", "assay_type": "biochemical", "settings": "for Ki: enzyme inhibition dissociation constant, calculated according to Chou", "procedure": "Chem. Path. Pharm. 17:201-213, 1977, at various compound concentrations. From the data received, the enzyme inhibition dissociation constants (Ki values) were calculated according to mathematical procedures described by Chou, Mol. Pharm. 10:235-247, 1974.\nThe Ki value of a preferred compound of this invention, 4,5-dichloro-2-indanamine, was compared with other closely related compounds."}, "[2]": {"tested_on": "adrenal epinephrine/norepinephrine ratio", "assay": "in vivo adrenal epinephrine/norepinephrine ratio in mice (PNMT inhibition)", "settings": "for E/NE Ratio: male mice, 50 mg/kg p.o. daily dose, seven days, n = 5", "procedure": "Male mice were dosed orally with either drug or vehicle control on a twice-a-day basis for seven consecutive days.\nOn the morning of the next day they were again dosed with two hours later sacrificed by decapitation. The adrenal glands were then removed and analyzed fluorometrically for both epinephrine and norepinephrine content."}, "[3]": {"settings": "Experiment 1, control 2.6 ± .1, ^b (SK & F 82566) significantly different from control, p <.001"}},
  "data": [
    {"smiles": "NC1Cc2ccccc2C1", "note": "[SK & F 8851]", "values": [
      {"measurement": "Ki", "setting": "[1]", "result": 10000, "unit": "nM"},
      {"measurement": "E/NE Ratio", "setting": "[2]; [3]", "result": 2.4}
    ]},
    {"smiles": "NC1Cc2cc(Cl)c(Cl)cc2C1", "note": "[SK & F 50070]", "values": [
      {"measurement": "Ki", "setting": "[1]", "result": 1000, "unit": "nM"},
      {"measurement": "E/NE Ratio", "setting": "[2]; [3]", "result": 2.2}
    ]},
    {"smiles": "NC1CCc2c1ccc(Cl)c2Cl", "note": "(centres unmarked) [SK & F 82520]", "values": [
      {"measurement": "Ki", "setting": "[1]", "result": 400, "unit": "nM"},
      {"measurement": "E/NE Ratio", "setting": "[2]; Experiment 2, control 2.0 ± .05", "result": 1.8}
    ]},
    {"smiles": "NC1Cc2ccc(Cl)c(Cl)c2C1", "note": "(centres unmarked) [SK & F 82566, 4,5-dichloro-2-indanamine]", "values": [
      {"measurement": "potency of inhibition (in words)", "setting": "[1]; compared with the other compounds of Table I", "result": "much more potent inhibitor than the other compounds"},
      {"measurement": "Ki", "setting": "[1]", "result": 20, "unit": "nM"},
      {"measurement": "E/NE Ratio", "setting": "[2]; [3]", "result": 1.1},
      {"measurement": "lowering of adrenal epinephrine/norepinephrine ratio (in words)", "setting": "[2]; only this compound, under the conditions of this study", "result": "significantly lowered the adrenal epinephrine/norepinephrine ratio"}
    ]},
    {"smiles": "NC1CCc2ccc(Cl)c(Cl)c21", "note": "(centres unmarked) [SK & F 82570]", "values": [
      {"measurement": "Ki", "setting": "[1]", "result": "> 1000", "unit": "nM"}
    ]}
  ]
}
